Where a name gives a salt, the structure may show the parent alone.
Target: T1, human GPR120 (Homo sapiens, UniProt Q5NUL3)
T1 construct: expressed in transfected cells; host or cells: CHO-K1
T1 sequence (Q5NUL3 1-361): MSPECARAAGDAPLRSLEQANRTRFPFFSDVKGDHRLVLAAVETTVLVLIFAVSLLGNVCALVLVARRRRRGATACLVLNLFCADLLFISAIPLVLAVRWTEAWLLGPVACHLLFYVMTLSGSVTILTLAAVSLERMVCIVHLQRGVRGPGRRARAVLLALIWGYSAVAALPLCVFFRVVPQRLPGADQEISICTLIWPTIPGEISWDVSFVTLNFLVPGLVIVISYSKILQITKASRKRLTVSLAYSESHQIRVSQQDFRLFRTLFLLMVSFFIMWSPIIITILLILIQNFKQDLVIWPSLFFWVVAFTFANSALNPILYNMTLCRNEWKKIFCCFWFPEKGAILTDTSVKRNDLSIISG
Assay: Human GPR120 IP1 assay (inositol phosphate turnover)
Type: cell-based
Details: IP1 accumulation in CHO-K1 cells stably expressing the short form of human GPR120
From the text: The binding of small molecule agonists to the G-protein-coupled receptor GPR120 activates phospholipase C, and leads to the generation of inositol 1,4,5-trisphosphate (InsP3 or IP3). IP3 is subsequently de-phosphorylated to IP1, which accumulates in cells and is stable in the presence of lithium chloride.
In the present method, agonist-induced activation of the human and rat GPR120 receptor was monitored by measuring the accumulation of IP1 in CHO-K1 cells that were stably expressing the short form of human GPR120 (Accession #NM_001195755) or HEK293 cells stably expressing rat GPR120 (Accession #NM_001047088). Following agonist addition, GPR120 activation and subsequent accumulation of IP1 was measured using a homogeneous Time Resolved Fluorescence-based ELISA commercially available from CisBio (IP-one ELISA Kit). The IP-One ELISA was a competitive immunoassay which uses IP1 labeled with […] and a terbium cryptate-labeled anti-IP1 monoclonal antibody. […] The signal loss was then back calculated to IP1 concentration using an IP1 standard curve. Determination of IP1 concentration was a direct measure of GPR120 activation and was used to determine compound potency (EC50).
Human GPR120 stable cell-lines were generated in CHO cells. The expression plasmids were transfected using lipofectamine (Life Technologies) following manufacturer's instructions. Stable cell-lines were generated following drug selection and single cell cloning. Rat GPR120 stable cell-lines were generated in HEK cells using the Jump-In™ cell engineering platform (Life Technologies) following manufacturer's instructions. Stable cell-lines were generated following drug selection and single cell cloning.
The assay was performed in 384-well format. CHO cells stably expressing human GPR120 were plated at 20,000 cells per well in growth medium (DMEM/F12, 10% fetal calf serum). HEK293 cells stably expressing rat GPR120 were plated at […] per well in growth medium (DMEM, 10% fetal calf serum). Cell plates were then incubated 16 hours at 37 degrees in a 5% CO2 incubator. Measurement of Inositol Phosphate Turnover (IP1) was performed using the CisBio IP-One kit (Part number 62IPAPEB). After the 16 hour incubation, the growth media was removed by centrifugation using the BlueWasher (AusWasher GUI Ver. v1.0.1.8) Protocol #21-“Light Dry” and 10 μl of stimulation buffer (prepared as described in the kit) was added to each well. In a separate plate, compounds were diluted in DMSO (200-fold over the final concentration in the assay well) and 50 nl was acoustically transferred to the appropriate well in the assay cell plate. The plates were then incubated for 60 minutes at 37 degrees in a 5% CO2 incubator. 10 μl of detection buffer (also prepared as described in the IP-One kit) was added to each well and the plates were incubated at room temperature for 60 minutes in the dark. The plates were then read in a Perkin ElmerEnVision or equivalent reader able to measure FRET. Fluorescent ratio of emission at 665 and 620 nm was then converted to the IP1 concentration by back calculating from an IP1 standard curve prepared at the time of the assay. The data was normalized to % activity using a reference compound, and the EC50 values were determined using a standard 4-parameter fit.

| EC50 | Structure (SMILES) |
| --- | --- |
| 64 nM | Oc1cc(-c2cnc(O[C@H]3C[C@@H](c4ccc(-c5cnco5)cc4)C3)cn2)on1 [Example 16, 5-[5-({cis-3-[4-(1,3-oxazol-5-yl)phenyl]cyclobutyl}oxy)pyrazin-2-yl]isoxazol-3-ol] |
| 104 nM | Cc1ccc([C@H]2C[C@H](Oc3cnc(-c4cc(O)no4)cn3)C2)c(F)c1 [Example 47, 5-(5-{[trans-3-(2-fluoro-4-methylphenyl)cyclobutyl]oxy}pyrazin-2-yl)isoxazol-3-ol] |
| 215 nM | Oc1cc(-c2cnc(O[C@H]3C[C@@](F)(c4cc(C(F)(F)F)ccc4F)C3)cn2)on1 [Example 107, 5-[5-({trans-3-fluoro-3-[2-fluoro-5-(trifluoromethyl)phenyl]cyclobutyl}oxy)pyrazin-2-yl]isoxazol-3-ol] |
| 92 nM | CCOc1ccc([C@H]2C[C@@H](Oc3ccc(-c4cc(O)no4)cn3)C2)cn1 [Example 22, 2-ethoxy-5-(cis-3-{[5-(3-hydroxyisoxazol-5-yl)pyridin-2-yl]oxy}cyclobutyl)-pyridinium chloride] |
| 31 nM | Oc1cc(-c2cnc(OC3CC(OCC4CCCC4)C3)cn2)on1 (mixture of isomers) [Example 81, sodium 5-(5-{[cis-3-(cyclopentylmethoxy)cyclobutyl]oxy}pyrazin-2-yl)isoxazol-3-olate (mixture of isomers predominantly cis)] |
| 51 nM | Oc1cc(-c2cnc(O[C@H]3C[C@@](F)(c4cc(OC(F)(F)F)ccc4F)C3)cn2)on1 (single isomer, unassigned) [Example 89, 5-[5-({trans-3-fluoro-3-[2-fluoro-5-(trifluoromethoxy)phenyl]-cyclobutyl}oxy)pyrazin-2-yl]isoxazol-3-ol] |
| 60 nM | Oc1cc(-c2ccc(O[C@H]3C[C@@](F)(c4ccc5c(c4)OC(F)(F)O5)C3)nc2)on1 [Example 104, ammonium 5-(6-{[trans-3-(2,2-difluoro-1,3-benzodioxol-5-yl)-3-fluorocyclobutyl]oxy}pyridin-3-yl)isoxazol-3-olate] |
| 215 nM | CC1(c2ccc(Cl)cc2)CC(Oc2cnc(-c3cc(O)no3)cn2)C1 (stereo not shown) [Example 93, 5-(5-{[3-(4-chlorophenyl)-3-methylcyclobutyl]oxy}pyrazin-2-yl)isoxazol-3-ol] |
| 320 nM | Oc1cc(-c2cnc(O[C@H]3C[C@H](c4ccnc(OC5CC5)c4)C3)cn2)on1 [Example 33, sodium 5-[5-({trans-3-[2-(cyclopropyloxy)pyridin-4-yl]cyclobutyl}oxy)pyrazin-2-yl]isoxazol-3-olate] |
| 9.7 nM | Oc1cc(-c2cnc(O[C@H]3C[C@@H](c4c(F)cc(Cl)cc4F)C3)cn2)on1 [Example 49, ammonium 5-(5-{[cis-3-(4-chloro-2,6-difluorophenyl)-cyclobutyl]oxy}pyrazin-2-yl)isoxazol-3-olate] |
| 34 nM | Oc1cc(-c2cnc(O[C@H]3C[C@@H](c4ccc(F)cc4)C3)cn2)on1 [Example 10, sodium 5-(5-{[cis-3-(4-fluorophenyl)cyclobutyl]oxy}pyrazin-2-yl)isoxazol-3-olate] |
| 34 nM | Oc1cc(-c2ccc(OC3CCC(c4cccc(OC(F)(F)F)c4)C3)nc2)on1 (single isomer, unassigned) [Example 118] |
| 104 nM | Oc1cc(-c2cnc(O[C@H]3C[C@@H](c4ccc(OC(F)F)cc4)C3)cn2)on1 [Example 58, 5-[5-({cis-3-[4-(difluoromethoxy)phenyl]cyclobutyl}oxy)pyrazin-2-yl]isoxazol-3-ol] |
| 85 nM | Oc1cc(-c2cnc(O[C@H]3C[C@@H](c4ccc5c(c4)OCCO5)C3)cn2)on1 [Example 42, ammonium 5-(5-{[cis-3-(2,3-dihydro-1,4-benzodioxin-6-yl)cyclobutyl]oxy}pyrazin-2-yl)isoxazol-3-olate] |
| 1990 nM | Oc1cc(-c2ccc(OCC3CC(Oc4ccccc4)C3)nc2)on1 (stereo not shown) [Example 64, ammonium 5-{6-[(3-phenoxycyclobutyl)methoxy]pyridin-3-yl}isoxazol-3-olate] |
| 41 nM | Oc1cc(-c2ccc(OC3CC(c4ccccc4)C3)nc2)on1 (stereo not shown) [Example 36, 5-{6-[(3-phenylcyclobutyl)oxy]pyridin-3-yl}isoxazol-3-ol trifluoroacetate] |
| 49 nM | Oc1cc(-c2cnc(O[C@H]3C[C@@H](c4ccc(OC(F)(F)F)cc4)C3)cn2)on1 [Example 56, 5-[5-({cis-3-[4-(trifluoromethoxy)phenyl]cyclobutyl}oxy)pyrazin-2-yl]isoxazol-3-ol] |
| 25 nM | Oc1cc(-c2cnc(O[C@H]3C[C@@H](COc4ccccc4F)C3)cn2)on1 [Example 85, sodium 5-[5-({cis-3-[(2-fluorophenoxy)methyl]cyclobutyl}oxy)pyrazin-2-yl]isoxazol-3-olate] |
| 38 nM | Cc1cc(O[C@H]2C[C@@H](Oc3cnc(-c4cc(O)no4)cn3)C2)ccc1F [Example 71, 5-(5-{[cis-3-(4-fluoro-3-methylphenoxy)cyclobutyl]oxy}pyrazin-2-yl)isoxazol-3-ol] |
| 60 nM | Cc1cc([C@H]2C[C@@H](Oc3cnc(-c4cc(O)no4)cn3)C2)ccc1OC(F)(F)F [Example 44, 5-[5-({cis-3-[3-methyl-4-(trifluoromethoxy)phenyl]cyclobutyl}oxy)pyrazin-2-yl]isoxazol-3-ol] |
| 153 nM | CC(C)Oc1cc([C@]2(F)C[C@@H](Oc3cnc(-c4cc(O)no4)cn3)C2)ccn1 [Example 100, sodium 5-[5-({cis-3-fluoro-3-[2-(propan-2-yloxy)pyridin-4-yl]cyclobutyl}oxy)pyrazin-2-yl]isoxazol-3-olate] |
| 75 nM | Oc1cc(-c2cnc(O[C@H]3C[C@@H](c4cccc(-c5cnco5)c4)C3)cn2)on1 [Example 19, ammonium 5-[5-({cis-3-[3-(1,3-oxazol-5-yl)phenyl]-cyclobutyl}oxy)pyrazin-2-yl]isoxazol-3-olate] |
| 181 nM | CCc1ccc([C@H]2C[C@@H](Oc3ccc(-c4onc(O)c4F)cn3)C2)cc1 [Example 13, ammonium 5-(6-{[cis-3-(4-ethylphenyl)cyclobuty]oxy}pyridin-3-yl)-4-fluoroisoxazol-3-olate] |
| 10 nM | Oc1cc(-c2ccc(OC3CC(c4ccc(F)cc4)C3)nc2)on1 (stereo not shown) [Example 35, 5-(6-{[3-(4-fluorophenyl)cyclobutyl]oxy}pyridin-3-yl)isoxazol-3-ol trifluoroacetate] |
| 23 nM | Oc1cc(-c2cnc(OC3CC(OCC4CCCCC4)C3)cn2)on1 (mixture of isomers) [Example 80, 5-(5-{[cis-3-(cyclohexylmethoxy)cyclobutyl]oxy}pyrazin-2-yl)isoxazol-3-ol (mixture of isomers predominantly cis)] |
| 23 nM | Oc1cc(-c2cnc(O[C@H]3C[C@@H](c4c(F)cc(OC(F)F)cc4F)C3)cn2)on1 [Example 50, ammonium 5-[5-({cis-3-[4-(difluoromethoxy)-2,6-difluorophenyl]cyclobutyl}oxy)pyrazin-2-yl]isoxazol-3-olate] |
| 11 nM | Oc1cc(-c2cnc(O[C@H]3C[C@@H](c4ccc(Br)cc4)C3)cn2)on1 [Example 7, ammonium 5-(5-{[cis-3-(4-bromophenyl)cyclobutyl]oxy}pyrazin-2-yl)isoxazol-3-olate] |
| 46 nM | Oc1cc(-c2cnc(O[C@H]3C[C@@H](c4ccc(C(F)(F)F)cn4)C3)cn2)on1 [Example 25, 5-[5-({cis-3-[5-(trifluoromethyl)pyridin-2-yl]cyclobutyl}oxy)pyrazin-2-yl]isoxazol-3-ol] |

— patent US10864211B2, “Hydroxy isoxazole compounds useful as GPR120 agonists” (Merck Sharp & Dohme Corp., priority 2016, dated 2020)
